US10934311B2, “Heterocyclic compound used as FGFR inhibitor” (Hangzhou Innogate Pharma Co., Ltd., priority 2016, dated 2021)

How the values were obtained:
FGFR3 = FGFR3 (Homo sapiens, UniProt P22607); test: FGFR3 kinase activity inhibition (Caliper mobility shift assay); format: biochemical; conditions: read-out: FGFR kinase activity inhibition (IC50, nM) FGFR3
Protocol: (§1) 1. FGFR1, FGFR2, FGFR3, and FGFR4 Kinase Activity Inhibition Experiments The FGFR1, FGFR2, FGFR3, and FGFR4 protein kinase activities were measured using the Caliper mobility shift assay. Compounds were solubilized in DMSO and diluted in kinase buffer. 5 µL of compound at 5 times final concentration (10% DMSO) was added to a 384-well plate. 10 μL of a 2.5-fold enzyme (FGFR1, FGFR2, FGFR3, and FGFR4, respectively) solution was added and incubated at room temperature for 10 minutes, followed by the addition of […] of a 2.5-fold substrate (FAM-labeled peptide and ATP) solution. The reaction was incubated for 30-60 minutes at 28° C., then stopped by adding 25 μL of stop solution (pH 7.5 100 mM HEPES, 0.015% Brij-35, 0.2% Coating Reagent #3, 50 mM EDTA). Conversion data was read on the Caliper EZ Reader II (Caliper Life Sciences). The conversion rate was converted into inhibition rate (% inhibition rate=(max−sample conversion rate)/(max−min)*100). Where max refers to the conversion of the DMSO control and min refers to the conversion of the non-enzymatic live control. With the compound concentration and inhibition rate plotted on the abscissa and the vertical axis, the curve was fitted using XLFit excel add-in version 4.3.1 software and the IC50 was calculated.

FGFR1 = FGFR1 (Homo sapiens, UniProt P11362); test: FGFR1 kinase activity inhibition (Caliper mobility shift assay); format: biochemical; conditions: read-out: FGFR kinase activity inhibition (IC50, nM) FGFR1
Protocol: as §1

FGFR2 = FGFR2 (Homo sapiens, UniProt P21802); test: FGFR2 kinase activity inhibition (Caliper mobility shift assay); format: biochemical; conditions: read-out: FGFR kinase activity inhibition (IC50, nM) FGFR2
Protocol: as §1

SNU-16 tumor cells = test: Inhibition test against SNU-16 tumor cell proliferation (CTG); format: cell-based; conditions: Homo sapiens, 72 hours drug treatment, CTG readout, read-out: Inhibits of SNU-16 tumor cells proliferation (IC50, nM) SNU-16
Protocol: 2. Compounds' Inhibition Test Against SNU-16 Tumor Cell Proliferation
SNU-16 cell suspension was adjusted to 5.56×10e4/mL with RPMI 1640 medium. Add 90 μL of cell suspension to 96-well cell culture plates per well for a final cell concentration of 5000 cells/well. The test compound was dissolved in DMSO as a 10 mM stock solution. The 3× series of serial dilutions were prepared with stock and DMSO and then diluted 100-fold with media. Finally, 10 μL of the corresponding 10× solution was added to each well of each cell, and each drug concentration was 2 replicates. The final concentration of each compound was 1000 nM, 333.3 nM, 111.1 nM, 37.04 nM, 12.35 nM, 4.115 nM, 1.372 nM, 0.457 nM, 0.152 nM, the final concentration of DMSO per well is 0.1%. Place in a 37° C., 5% CO2 incubator for 72 hours. After 72 hours of drug treatment, add 50 μL (1/2 culture volume) of CTG solution that has been previously thawed and equilibrated to room temperature per well according to CTG instructions, mix for 2 minutes using a microplate shaker, and allow to stand at room temperature for 10 minutes. The Envision 2104 reader was used to determine the […] signal value. Cell viability formula: Vsample/Vvehicle control×100% for calculation. Wherein Vsample is the reading of the drug treatment group and, Vvehicle control is the average of the solvent control group. Using the GraphPad Prism 5.0 software, a sigmoidal dose-survival curve was plotted using a non-linear regression model and IC50 values were calculated.

FGFR4 = FGFR4 (Homo sapiens, UniProt P22455); test: FGFR4 kinase activity inhibition (Caliper mobility shift assay); format: biochemical; conditions: read-out: FGFR kinase activity inhibition (IC50, nM) FGFR4
Protocol: as §1

Chain of FGFR1 (P11362 22-822): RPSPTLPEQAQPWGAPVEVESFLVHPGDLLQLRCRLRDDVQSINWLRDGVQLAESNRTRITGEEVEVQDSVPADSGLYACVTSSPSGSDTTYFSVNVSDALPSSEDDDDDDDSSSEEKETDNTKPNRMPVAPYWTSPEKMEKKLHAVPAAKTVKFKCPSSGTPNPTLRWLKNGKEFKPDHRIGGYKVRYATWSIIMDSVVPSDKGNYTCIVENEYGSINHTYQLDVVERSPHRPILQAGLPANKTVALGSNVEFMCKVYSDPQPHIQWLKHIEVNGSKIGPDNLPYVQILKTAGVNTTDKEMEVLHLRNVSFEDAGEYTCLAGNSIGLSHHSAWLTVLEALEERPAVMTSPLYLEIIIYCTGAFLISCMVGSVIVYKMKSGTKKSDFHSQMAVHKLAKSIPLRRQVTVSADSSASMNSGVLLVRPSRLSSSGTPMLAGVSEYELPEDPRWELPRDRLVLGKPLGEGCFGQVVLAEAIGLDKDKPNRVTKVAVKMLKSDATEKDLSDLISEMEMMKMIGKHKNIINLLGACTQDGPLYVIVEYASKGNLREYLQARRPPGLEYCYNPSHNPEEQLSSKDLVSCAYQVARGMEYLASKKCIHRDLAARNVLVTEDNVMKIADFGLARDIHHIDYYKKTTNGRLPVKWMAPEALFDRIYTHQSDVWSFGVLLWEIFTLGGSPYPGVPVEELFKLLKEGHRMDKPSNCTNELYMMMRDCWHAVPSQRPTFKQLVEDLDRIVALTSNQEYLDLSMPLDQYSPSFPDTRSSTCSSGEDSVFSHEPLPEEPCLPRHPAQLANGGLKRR
Chain of FGFR2 (P21802 22-821): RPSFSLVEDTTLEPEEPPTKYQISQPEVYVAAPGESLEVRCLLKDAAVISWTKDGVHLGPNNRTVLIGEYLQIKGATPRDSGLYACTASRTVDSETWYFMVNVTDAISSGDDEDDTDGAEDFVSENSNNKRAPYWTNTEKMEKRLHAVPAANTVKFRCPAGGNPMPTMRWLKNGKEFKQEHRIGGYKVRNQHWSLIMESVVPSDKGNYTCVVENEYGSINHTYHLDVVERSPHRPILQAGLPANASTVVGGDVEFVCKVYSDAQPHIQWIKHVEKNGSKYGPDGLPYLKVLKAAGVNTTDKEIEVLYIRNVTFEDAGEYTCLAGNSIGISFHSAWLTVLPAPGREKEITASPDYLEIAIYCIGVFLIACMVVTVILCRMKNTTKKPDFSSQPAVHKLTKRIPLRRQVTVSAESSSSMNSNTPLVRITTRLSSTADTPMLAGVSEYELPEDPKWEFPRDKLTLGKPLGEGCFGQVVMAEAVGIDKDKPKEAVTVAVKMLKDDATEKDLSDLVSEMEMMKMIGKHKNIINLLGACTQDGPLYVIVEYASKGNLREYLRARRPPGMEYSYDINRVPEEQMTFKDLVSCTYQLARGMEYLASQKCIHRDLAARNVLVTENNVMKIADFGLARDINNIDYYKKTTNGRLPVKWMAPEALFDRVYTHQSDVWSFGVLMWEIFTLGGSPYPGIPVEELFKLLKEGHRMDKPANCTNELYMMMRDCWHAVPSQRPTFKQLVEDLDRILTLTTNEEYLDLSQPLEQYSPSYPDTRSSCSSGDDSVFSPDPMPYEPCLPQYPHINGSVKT
Chain of FGFR3 (P22607 23-806): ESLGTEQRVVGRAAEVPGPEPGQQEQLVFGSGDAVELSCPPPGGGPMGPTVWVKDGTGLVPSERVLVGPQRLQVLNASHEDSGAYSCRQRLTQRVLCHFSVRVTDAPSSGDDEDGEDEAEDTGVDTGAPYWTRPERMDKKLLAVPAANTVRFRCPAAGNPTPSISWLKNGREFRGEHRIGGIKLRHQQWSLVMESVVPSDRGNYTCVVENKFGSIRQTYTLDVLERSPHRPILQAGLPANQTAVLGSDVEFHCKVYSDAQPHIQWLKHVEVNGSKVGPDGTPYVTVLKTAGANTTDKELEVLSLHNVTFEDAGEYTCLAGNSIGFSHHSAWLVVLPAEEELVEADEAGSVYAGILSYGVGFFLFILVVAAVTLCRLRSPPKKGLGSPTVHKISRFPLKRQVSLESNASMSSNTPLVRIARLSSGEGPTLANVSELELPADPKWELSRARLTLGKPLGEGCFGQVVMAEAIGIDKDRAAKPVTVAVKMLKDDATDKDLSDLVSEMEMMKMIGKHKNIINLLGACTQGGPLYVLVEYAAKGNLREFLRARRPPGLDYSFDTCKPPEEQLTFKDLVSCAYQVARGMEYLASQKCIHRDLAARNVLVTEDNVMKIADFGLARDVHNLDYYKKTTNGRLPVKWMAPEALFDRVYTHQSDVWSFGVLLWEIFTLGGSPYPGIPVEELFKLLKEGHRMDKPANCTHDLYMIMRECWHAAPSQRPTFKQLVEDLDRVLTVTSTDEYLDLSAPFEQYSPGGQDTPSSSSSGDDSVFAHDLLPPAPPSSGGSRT
Chain of FGFR4 (P22455 22-802): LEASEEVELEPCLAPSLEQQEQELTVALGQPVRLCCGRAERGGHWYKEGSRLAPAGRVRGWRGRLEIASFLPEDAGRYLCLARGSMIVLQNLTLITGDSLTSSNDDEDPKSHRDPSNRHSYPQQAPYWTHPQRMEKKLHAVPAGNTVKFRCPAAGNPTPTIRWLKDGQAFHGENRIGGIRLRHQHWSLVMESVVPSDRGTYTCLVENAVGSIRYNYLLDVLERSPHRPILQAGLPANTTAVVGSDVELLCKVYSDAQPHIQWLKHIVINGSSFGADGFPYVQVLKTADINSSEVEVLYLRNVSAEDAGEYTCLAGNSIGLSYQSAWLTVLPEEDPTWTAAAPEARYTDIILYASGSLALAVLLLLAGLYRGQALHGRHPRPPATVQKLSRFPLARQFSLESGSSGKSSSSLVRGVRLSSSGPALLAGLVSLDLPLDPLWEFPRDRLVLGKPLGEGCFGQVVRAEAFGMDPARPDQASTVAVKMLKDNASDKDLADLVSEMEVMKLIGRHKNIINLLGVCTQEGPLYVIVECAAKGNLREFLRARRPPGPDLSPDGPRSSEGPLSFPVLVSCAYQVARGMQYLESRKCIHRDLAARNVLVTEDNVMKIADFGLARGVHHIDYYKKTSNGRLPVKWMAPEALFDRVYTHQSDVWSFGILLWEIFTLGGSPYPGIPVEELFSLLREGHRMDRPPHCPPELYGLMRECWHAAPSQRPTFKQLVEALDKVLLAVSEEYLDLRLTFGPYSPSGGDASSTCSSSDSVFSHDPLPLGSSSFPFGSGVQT

IC50 (FGFR3)	IC50 (FGFR1)	IC50 (FGFR2)	IC50 (SNU-16 tumor cells)	IC50 (FGFR4)	Compound
–	< 10 nM	< 10 nM	–	–	COc1cc(OC)c(Cl)c(NC(=O)N(C)c2cc(Nc3ccc4c(c3)OC[C@H]3CN(C)CC(=O)N43)ncn2)c1Cl [Compound 9R]
–	< 10 nM	< 10 nM	–	–	COc1cc(OC)c(Cl)c(NC(=O)N(C)c2cc(Nc3ccc4c(c3)OC[C@H]3CN(C(C)=O)CCN43)ncn2)c1Cl [Compound 7R]
–	< 20 nM	< 20 nM	–	–	COc1cc(OC)c(Cl)c(NC(=O)N(C)c2cc(Nc3ccc4c(c3)OC[C@H]3COCCN43)ncn2)c1Cl [Compound 8R]
> 1000 nM	> 1000 nM	> 1000 nM	–	< 20 nM	C=CC(=O)Nc1cc2c(cc1Nc1cc(N(C)C(=O)Nc3c(Cl)c(OC)cc(OC)c3Cl)ncn1)OC[C@@H]1CN(C)CCN21 [Compound 5S]
< 10 nM	< 10 nM	< 10 nM	< 10 nM	< 200 nM	CCN1CCN2c3ccc(Nc4cc(N(C)C(=O)Nc5c(Cl)c(OC)cc(OC)c5Cl)ncn4)cc3OC[C@@H]2C1 [Compound 4S]
–	< 50 nM	–	–	< 200 nM	C=CC(=O)Nc1ccc(CN(C(=O)Nc2c(Cl)c(OC)cc(OC)c2Cl)c2cc(Nc3ccc4c(c3)OC[C@@H]3CN(C)CCN43)ncn2)cc1 [Compound 11S]
–	< 20 nM	< 50 nM	–	–	COc1cc(OC)c(Cl)c(NC(=O)N(C)c2cc(Nc3ccc4c(c3)OC[C@H]3CN(C5CC5)CCN43)ncn2)c1Cl [Compound 6R]
–	< 50 nM	< 50 nM	–	–	CCS(=O)(=O)N1CCN2c3ccc(Nc4cc(N(C)C(=O)Nc5c(Cl)c(OC)cc(OC)c5Cl)ncn4)cc3OC[C@H]2C1 [Compound 10R]

Further lines, the compound ahead of its results:

Compound	IC50 (FGFR3)	IC50 (FGFR1)	IC50 (FGFR2)	IC50 (SNU-16 tumor cells)	IC50 (FGFR4)
COc1cc(OC)c(Cl)c(NC(=O)N(C)c2cc(Nc3ccc4c(c3)OCC3CN(C)CCN43)ncn2)c1Cl (stereo not shown) [Compound 2]	< 10 nM	< 10 nM	–	–	–
COc1cc(OC)c(Cl)c(NC(=O)N(C)c2cc(Nc3ccc(N4CC5CN(C)CC(C4)C5(F)F)cc3)ncn2)c1Cl [Compound 3]	< 10 nM	< 10 nM	–	< 10 nM	–
COc1cc(OC)c(Cl)c(NC(=O)N(C)c2cc(Nc3ccc4c(c3)OC[C@H]3CN(C)CCN43)ncn2)c1Cl [Compound 2R]	< 10 nM	< 10 nM	< 10 nM	< 10 nM	< 200 nM
COc1cc(OC)c(Cl)c(NC(=O)N(C)c2cc(Nc3ccc4c(c3)OC[C@@H]3CN(C)CCN43)ncn2)c1Cl [Compound 2S]	< 10 nM	< 10 nM	< 10 nM	< 10 nM	< 200 nM
COc1cc(OC)c(Cl)c(NC(=O)N(C)c2cc(Nc3ccc4c(c3)OCCN(C)CCO4)ncn2)c1Cl [Compound 1]	< 20 nM	< 20 nM	–	–	–
CCN1CCN2c3ccc(Nc4cc(N(C)C(=O)Nc5c(Cl)c(OC)cc(OC)c5Cl)ncn4)cc3OC[C@H]2C1 [Compound 4R]	–	< 10 nM	< 10 nM	–	–
